What was measured:
Human skin fibroblasts [1] = assay: Experiment 3: restoration of UV irradiation-reduced cellular activity; type: cell-based; details: pre-irradiation 400 mJ/cm^2 without substance, then UV 0-200 mJ/cm^2 through 0.4% or 2% C-phycocyanin; FIG. 5
Experimental: (§1) 1. Human skin fibroblasts (purchased from Kurabo) and human skin keratinocytes (purchased from Kurabo or PromoCell) were used. A cell suspension (1 mL) stored with liquid nitrogen was placed in a hot water bath (37° C.) and thawed until small ice pellets remained, and then diluted with 9 mL of warm medium. 2. The diluted suspension was gently mixed and transferred to a T75 flask, and incubated overnight at 37° C. 3. On the following day, the medium was exchanged with 10 mL of fresh medium. 4. The medium was periodically exchanged (once every 2 days for fibroblasts, or once every 2 to 3 days for keratinocytes), while continuing growth of the cells. During this time, a microscope was used to observe the cells and to confirm that the cells had proliferated with the proper form. 5. Once the cells reached approximately 80% confluence, they were subcultured. Subculturing of the cells was carried out by rinsing once in 10 mL of warm PBS, after which 5 mL of warm trypsin was added to the T75 flask to cover the bottom of the flask with the trypsin solution, and the mixture was suctioned after standing for 1 minute at room temperature. 6. The flask was set in an oven at 37° C. for 2 minutes (maximum) for fibroblasts and 7 minutes (maximum) for keratinocytes. A microscope was used to observe the cells, confirming that they were small and elliptical. 7. […]

Human skin fibroblasts [2] = assay: Experiment 2: cellular activity at different C-phycocyanin concentrations and UV doses; type: cell-based; details: UV 0, 10, 25, 50, 75 and 100 mJ/cm^2, FIG. 3
Experimental: as §1

## C-phycocyanin
Human skin fibroblasts [1]
  cellular activity of cells with previously lowered activity: cellular activity was restored
Human skin fibroblasts [2]; 0.4% C-phycocyanin
  cellular activity (relative fluorescence intensity): reduction in cellular activity was inhibited even under UV irradiation
Human skin fibroblasts [2]; 2% C-phycocyanin
  cellular activity (relative fluorescence intensity): accelerated cellular activity even above the level with no UV irradiation

Reference: patent US20220175638A1, “CELL ACTIVATOR” (Shiseido Company, Ltd., priority 2019, published 2022)
